Measured values as given in the NIST ThermoML archive (doi:10.1007/s10765-010-0768-y).

Assay: xn = mol fraction of the nth substance listed
Settings: 101 kPa, Liquid, Pycnometric method

C=CC(=O)OCCCC [butyl 2-propenoate] + Cc1ccc(C)cc1
mass density [kg/m3]
Settings	288.15 K	293.15 K	298.15 K	303.15 K	308.15 K	313.15 K	318.15 K
x1 = 0.0712	868.91	864.5	860.09	855.68	851.28	846.88	842.48
x1 = 0.1429	872.25	867.79	863.33	858.87	854.42	849.97	845.52
x1 = 0.213	875.39	870.89	866.39	861.89	857.39	852.9	848.41
x1 = 0.2833	878.45	873.91	869.37	864.84	860.31	855.78	851.25
x1 = 0.3623	881.76	877.19	872.62	868.05	863.48	858.91	854.34
x1 = 0.4313	884.56	879.95	875.34	870.74	866.14	861.54	856.94
x1 = 0.5088	887.58	882.94	878.3	873.66	869.03	864.4	859.77
x1 = 0.5829	890.35	885.68	881.01	876.34	871.68	867.02	862.36
x1 = 0.6542	892.91	888.21	883.51	878.82	874.13	869.44	864.75
x1 = 0.7216	895.22	890.5	885.78	881.06	876.35	871.64	866.93
x1 = 0.7922	897.54	892.8	888.06	883.32	878.58	873.85	869.12
x1 = 0.8586	899.61	894.85	890.09	885.33	880.58	875.83	871.08
x1 = 0.9294	901.67	896.91	892.15	887.39	882.63	877.88	873.13
x1 = 1	903.6	898.85	894.1	889.35	884.6	879.85	875.1

C=CC(=O)OCCCC [butyl 2-propenoate] + Cc1cccc(C)c1
mass density [kg/m3]
Settings	288.15 K	293.15 K	298.15 K	303.15 K	308.15 K	313.15 K	318.15 K
x1 = 0.0732	871.73	867.39	863.05	858.71	854.37	850.04	845.71
x1 = 0.1432	874.65	870.26	865.87	861.48	857.1	852.72	848.34
x1 = 0.2103	877.37	872.94	868.51	864.08	859.66	855.24	850.82
x1 = 0.2841	880.28	875.81	871.34	866.87	862.41	857.95	853.49
x1 = 0.3605	883.19	878.68	874.17	869.66	865.16	860.66	856.16
x1 = 0.4318	885.82	881.28	876.74	872.2	867.66	863.12	858.58
x1 = 0.5006	888.28	883.7	879.12	874.55	869.98	865.41	860.84
x1 = 0.5778	890.95	886.34	881.73	877.12	872.51	867.9	863.3
x1 = 0.6534	893.46	888.81	884.17	879.53	874.89	870.25	865.61
x1 = 0.7204	895.6	890.93	886.26	881.59	876.92	872.25	867.58
x1 = 0.7935	897.84	893.13	888.43	883.73	879.03	874.33	869.63
x1 = 0.8579	899.73	895	890.27	885.54	880.82	876.1	871.38
x1 = 0.9306	901.78	897.03	892.28	887.53	882.79	878.05	873.31
x1 = 1	903.6	898.85	894.1	889.35	884.6	879.85	875.1
